Test results taken from patent US8686044B2, “Amide derivative, pest control agent containing the amide derivative, and use of the amide derivative” (Mitsui Chemicals Agro, Inc., priority 2008, dated 2014).

What was measured:
Plutella xylostella = experiment: Pesticidal test against Plutella xylostella (cabbage leaf dip); type: in vivo; settings: foliar, 144 h, 2-stage larvae, examined after 6 days, 25° C., read-out: pesticidal rate; for pest or weed control at 10 ppm: concentration 10 ppm; for pest or weed control at 1 ppm: concentration 1 ppm
Method: (§1) Pesticidal Test against Plutella xylostella A piece of a cabbage leaf was immersed for 30 seconds in a chemical solution in which a test compound had been prepared at a predetermined concentration, and air-dried, and then put into a 7 cm polyethylene cup having a filter paper laid on the bottom thereof, and 2-stage larvae of Plutella xylostella were released. They were left to stand in a thermostatic chamber at 25° C., and the numbers of the living pests and the dead pests were examined after 6 days. The test was carried out with five larvae per group in two replicates. Further, the above compound (A) was used as a comparative compound.

Spodoptera litura = experiment: Pesticidal test against Spodoptera litura (cabbage leaf dip); type: in vivo; settings: foliar, 144 h, 2-stage larvae, examined after 6 days, 25° C., read-out: pesticidal rate; for pest or weed control at 1 ppm: concentration 1 ppm; for pest or weed control at 10 ppm: concentration 10 ppm
Method: as §1, with “Spodoptera litura” for “Plutella xylostella”, “following” for “above”, “(A) disclosed in the pamphlet of International Publication WO 2005/073165” for “(A)”

SMILES | pest or weed control at 10 ppm (Plutella xylostella) | pest or weed control at 1 ppm (Spodoptera litura) | pest or weed control at 10 ppm (Spodoptera litura) | pest or weed control at 1 ppm (Plutella xylostella)
N#Cc1ccc(C(=O)Nc2c(Cl)cc(C(F)(C(F)(F)F)C(F)(F)F)cc2C(F)(F)F)cc1NC(=O)c1ccccc1 [1-470] | ≥ 70% | ≥ 70% | – | –
N#Cc1ccc(C(=O)Nc2c(Cl)cc(C(F)(C(F)(F)F)C(F)(F)F)cc2C(F)(F)F)cc1NC(=O)c1cccnc1Cl [1-506] | ≥ 70% | – | ≥ 70% | –
N#Cc1ccc(C(=O)Nc2c(Cl)cc(C(F)(C(F)(F)F)C(F)(F)F)cc2C(F)(F)F)cc1NC(=O)c1ccc(Cl)nc1 [1-513] | – | ≥ 70% | – | ≥ 70%
CN(C(=O)c1ccc(Cl)nc1)c1cc(C(=O)Nc2c(Cl)cc(C(F)(C(F)(F)F)C(F)(F)F)cc2C(F)(F)F)ccc1C#N [2-513] | – | – | ≥ 70% | ≥ 70%
CN(C(=O)c1ccc(C#N)nc1)c1cc(C(=O)Nc2c(Cl)cc(C(F)(C(F)(F)F)C(F)(F)F)cc2C(F)(F)F)ccc1C#N [2-518] | ≥ 70% | – | ≥ 70% | –
O=C(Nc1cccc(C(=O)Nc2c(Br)cc(C(F)(C(F)(F)F)C(F)(F)C(F)(F)F)cc2Br)c1)c1ccccc1 (stereo not shown) [6-38] | – | ≥ 70% | – | ≥ 70%
N#Cc1ccc(C(=O)Nc2cccc(C(=O)Nc3c(Br)cc(C(F)(C(F)(F)F)C(F)(F)C(F)(F)F)cc3Br)c2)cc1 (stereo not shown) [6-46] | – | ≥ 70% | – | ≥ 70%
O=C(Nc1cccc(C(=O)Nc2c(Br)cc(C(F)(C(F)(F)F)C(F)(F)C(F)(F)F)cc2Br)c1)c1ccc(Cl)nc1 (stereo not shown) [6-60] | ≥ 70% | ≥ 70% | – | –
N#Cc1cccc(C(=O)Nc2cccc(C(=O)Nc3c(I)cc(C(F)(C(F)(F)F)C(F)(F)C(F)(F)F)cc3I)c2)c1 (stereo not shown) [6-78] | – | ≥ 70% | – | ≥ 70%
O=C(Nc1cccc(C(=O)Nc2c(I)cc(C(F)(C(F)(F)F)C(F)(F)C(F)(F)F)cc2I)c1)c1ccc(Cl)nc1 (stereo not shown) [6-93] | ≥ 70% | ≥ 70% | – | –
O=C(Nc1cccc(C(=O)Nc2c(Cl)cc(C(F)(C(F)(F)F)C(F)(F)F)cc2C(F)(F)F)c1)c1ccccc1 [6-111] | – | ≥ 70% | – | ≥ 70%
N#Cc1cccc(C(=O)Nc2cccc(C(=O)Nc3c(Br)cc(C(F)(C(F)(F)F)C(F)(F)F)cc3C(F)(F)F)c2)c1 [6-288] | – | ≥ 70% | – | ≥ 70%
N#Cc1ccc(C(=O)Nc2cccc(C(=O)Nc3c(Br)cc(C(F)(C(F)(F)F)C(F)(F)F)cc3C(F)(F)F)c2)cc1 [6-289] | – | ≥ 70% | – | ≥ 70%
N#Cc1ccc(C(=O)Nc2cccc(C(=O)Nc3c(Br)cc(C(F)(C(F)(F)F)C(F)(F)F)cc3C(F)(F)F)c2)c(F)c1 [6-300] | – | ≥ 70% | – | ≥ 70%
O=C(Nc1cccc(C(=O)Nc2c(I)cc(C(F)(C(F)(F)F)C(F)(F)F)cc2C(F)(F)F)c1)c1ccccc1 [6-424] | – | ≥ 70% | – | ≥ 70%
O=C(Nc1c(I)cc(C(F)(C(F)(F)F)C(F)(F)F)cc1C(F)(F)F)c1cccc(NC(=O)c2ccc(Cl)cc2Cl)c1 [6-448] | ≥ 70% | ≥ 70% | – | –
O=C(Nc1c(I)cc(C(F)(C(F)(F)F)C(F)(F)F)cc1C(F)(F)F)c1cccc(NC(=O)c2ccc([N+](=O)[O-])cc2Cl)c1 [6-454] | ≥ 70% | – | ≥ 70% | –
O=C(Nc1cccc(C(=O)Nc2c(I)cc(C(F)(C(F)(F)F)C(F)(F)F)cc2C(F)(F)F)c1)c1ccc(Cl)nc1 [6-467] | – | ≥ 70% | – | ≥ 70%
O=C(Nc1cccc(C(=O)Nc2c(I)cc(C(F)(C(F)(F)F)C(F)(F)C(F)(F)F)cc2C(F)(F)F)c1)c1ccccc1 (stereo not shown) [6-502] | – | ≥ 70% | – | ≥ 70%
O=C(Nc1cccc(C(=O)Nc2c(I)cc(C(F)(C(F)(F)F)C(F)(F)C(F)(F)F)cc2C(F)(F)F)c1)c1ccc(Cl)nc1 (stereo not shown) [6-545] | – | ≥ 70% | – | ≥ 70%
O=C(Nc1cccc(C(=O)Nc2c(C(F)(F)F)cc(C(F)(C(F)(F)F)C(F)(F)F)cc2C(F)(F)F)c1)c1ccccc1 [6-804] | – | ≥ 70% | – | ≥ 70%
N#Cc1cccc(C(=O)Nc2cccc(C(=O)Nc3c(C(F)(F)F)cc(C(F)(C(F)(F)F)C(F)(F)F)cc3C(F)(F)F)c2)c1 [6-824] | – | ≥ 70% | – | ≥ 70%
N#Cc1ccc(C(=O)Nc2cccc(C(=O)Nc3c(C(F)(F)F)cc(C(F)(C(F)(F)F)C(F)(F)F)cc3C(F)(F)F)c2)cc1 [6-825] | – | ≥ 70% | – | ≥ 70%

SMILES | pest or weed control at 10 ppm (Plutella xylostella) | pest or weed control at 1 ppm (Spodoptera litura) | pest or weed control at 10 ppm (Spodoptera litura) | pest or weed control at 1 ppm (Plutella xylostella)
O=C(Nc1c(C(F)(F)F)cc(C(F)(C(F)(F)F)C(F)(F)F)cc1C(F)(F)F)c1cccc(NC(=O)c2cccnc2Cl)c1 [6-840] | – | ≥ 70% | – | ≥ 70%
O=C(Nc1cccc(C(=O)Nc2c(I)cc(C(F)(C(F)(F)F)C(F)(F)F)cc2C(F)(F)F)c1F)c1ccc(F)cc1Cl [6-1755] | – | ≥ 70% | – | ≥ 70%
O=C(Nc1cccc(C(=O)Nc2c(Cl)cc(C(F)(C(F)(F)F)C(F)(F)F)cc2Br)c1F)c1ccccc1 [6-5902] | – | ≥ 70% | – | –
CS(=O)(=O)c1ccc(C(=O)Nc2cccc(C(=O)Nc3c(I)cc(C(F)(C(F)(F)F)C(F)(F)F)cc3C(F)(F)F)c2)c(Cl)c1 [6-5912] | – | ≥ 70% | – | ≥ 70%
O=C(Nc1cccc(C(=O)Nc2c(Br)cc(C(F)(F)C(F)(F)F)cc2C(F)(F)F)c1)c1ccccc1 [6-5913, 3-benzamide-N-(2-bromo-4-(perfluoroethyl)-6-(trifluoromethyl)phenyl)benzamide] | ≥ 70% | – | ≥ 70% | –
CN(C(=O)c1ccccc1)c1cccc(C(=O)Nc2c(Br)cc(C(F)(C(F)(F)F)C(F)(F)C(F)(F)F)cc2Br)c1 (stereo not shown) [7-38] | – | ≥ 70% | – | ≥ 70%
CN(C(=O)c1cccc(C#N)c1)c1cccc(C(=O)Nc2c(Br)cc(C(F)(C(F)(F)F)C(F)(F)C(F)(F)F)cc2Br)c1 (stereo not shown) [7-45] | – | ≥ 70% | – | ≥ 70%
CN(C(=O)c1ccc(C#N)cc1)c1cccc(C(=O)Nc2c(Br)cc(C(F)(C(F)(F)F)C(F)(F)C(F)(F)F)cc2Br)c1 (stereo not shown) [7-46] | – | ≥ 70% | – | ≥ 70%
CN(C(=O)c1ccc(Cl)nc1)c1cccc(C(=O)Nc2c(Br)cc(C(F)(C(F)(F)F)C(F)(F)C(F)(F)F)cc2Br)c1 (stereo not shown) [7-60] | – | ≥ 70% | – | ≥ 70%
CN(C(=O)c1ccccc1)c1cccc(C(=O)Nc2c(I)cc(C(F)(C(F)(F)F)C(F)(F)C(F)(F)F)cc2I)c1 (stereo not shown) [7-71] | – | ≥ 70% | – | ≥ 70%
CN(C(=O)c1ccccc1F)c1cccc(C(=O)Nc2c(I)cc(C(F)(C(F)(F)F)C(F)(F)C(F)(F)F)cc2I)c1 (stereo not shown) [7-72] | – | ≥ 70% | – | ≥ 70%
CN(C(=O)c1cccc(C#N)c1)c1cccc(C(=O)Nc2c(I)cc(C(F)(C(F)(F)F)C(F)(F)C(F)(F)F)cc2I)c1 (stereo not shown) [7-78] | – | ≥ 70% | – | ≥ 70%
CN(C(=O)c1ccc(C#N)cc1)c1cccc(C(=O)Nc2c(I)cc(C(F)(C(F)(F)F)C(F)(F)C(F)(F)F)cc2I)c1 (stereo not shown) [7-79] | – | ≥ 70% | – | ≥ 70%
CN(C(=O)c1c(F)cccc1F)c1cccc(C(=O)Nc2c(I)cc(C(F)(C(F)(F)F)C(F)(F)C(F)(F)F)cc2I)c1 (stereo not shown) [7-80] | – | ≥ 70% | – | ≥ 70%
CN(C(=O)c1ccc(Cl)nc1)c1cccc(C(=O)Nc2c(I)cc(C(F)(C(F)(F)F)C(F)(F)C(F)(F)F)cc2I)c1 (stereo not shown) [7-93] | – | ≥ 70% | – | ≥ 70%
CN(C(=O)c1ccc(C#N)cc1)c1cccc(C(=O)Nc2c(Cl)cc(C(F)(C(F)(F)F)C(F)(F)F)cc2C(F)(F)F)c1 [7-132] | – | ≥ 70% | – | ≥ 70%
CN(C(=O)c1cccnc1Cl)c1cccc(C(=O)Nc2c(Cl)cc(C(F)(C(F)(F)F)C(F)(F)F)cc2C(F)(F)F)c1 [7-147] | – | ≥ 70% | – | ≥ 70%
CN(C(=O)c1ccccc1F)c1cccc(C(=O)Nc2c(Br)cc(C(F)(C(F)(F)F)C(F)(F)F)cc2C(F)(F)F)c1 [7-269] | ≥ 70% | ≥ 70% | – | –
CN(C(=O)c1cccc(F)c1)c1cccc(C(=O)Nc2c(Br)cc(C(F)(C(F)(F)F)C(F)(F)F)cc2C(F)(F)F)c1 [7-270] | ≥ 70% | ≥ 70% | – | –
CN(C(=O)c1ccc(F)cc1)c1cccc(C(=O)Nc2c(Br)cc(C(F)(C(F)(F)F)C(F)(F)F)cc2C(F)(F)F)c1 [7-271] | – | ≥ 70% | – | ≥ 70%
CN(C(=O)c1c(F)cccc1F)c1cccc(C(=O)Nc2c(Br)cc(C(F)(C(F)(F)F)C(F)(F)F)cc2C(F)(F)F)c1 [7-290] | – | ≥ 70% | – | ≥ 70%
CN(C(=O)c1cc(C#N)cc(C#N)c1)c1cccc(C(=O)Nc2c(Br)cc(C(F)(C(F)(F)F)C(F)(F)F)cc2C(F)(F)F)c1 [7-299] | – | ≥ 70% | – | ≥ 70%
CN(C(=O)c1ccc(C#N)cc1F)c1cccc(C(=O)Nc2c(Br)cc(C(F)(C(F)(F)F)C(F)(F)F)cc2C(F)(F)F)c1 [7-300] | – | ≥ 70% | – | ≥ 70%
